This assay concerns recombinant guanylate cyclase reporter cell line. Kind of assay: Effect on a recombinant guanylate cyclase reporter cell line. In kind it is cell-based. Conditions: representative values, read-out: MEC (minimum effective concentration). As to the method: B-2. Effect on a Recombinant Guanylate Cyclase Reporter Cell Line
The cellular activity of the compounds according to the invention is determined using a recombinant guanylate cyclase reporter cell line, as described in F. Wunder et al., Anal. Biochem. 339, 104-112 (2005).
Turning to `Cc1n[nH]c2nc(-c3nc(Cc4ccccc4F)n4ncccc34)nc(N)c12` [Example 7, 6-[7-(2-Fluorobenzyl)imidazo[1,5-b]pyridazin-5-yl]-3-methyl-1H-pyrazolo[3,4-d]pyrimidine-4-amine], the minimal effective concentration came to 0.01 µM. As for `Nc1nc(-c2nn(CCC(F)(F)C(F)(F)F)c3ncc(F)cc23)nc2ncccc12` [Example 10, 2-[5-Fluoro-1-(3,3,4,4,4-pentafluorobutyl)-1H-pyrazolo[3,4-b]pyridin-3-yl]pyrido[2,3-d]pyrimidine-4-amine], the figure is 0.3 µM. On to `Cc1n[nH]c2nc(-c3nn(Cc4ncccc4F)c4ncc(F)cc34)nc(N)c12` [Example 1, 6-{5-Fluoro-1-[(3-fluoropyridin-2-yl)methyl]-1H-pyrazolo[3,4-b]pyridin-3-yl}-3-methyl-1H-pyrazolo[3,4-d]pyrimidine-4-amine], for which the minimal effective concentration amounted to 0.3 µM. For `Cc1n[nH]c2nc(-c3nn(CCC(F)(F)C(F)(F)F)c4ncc(F)cc34)nc(N)c12` [Example 8, 6-[5-Fluoro-1-(3,3,4,4,4-pentafluorobutyl)-1H-pyrazolo[3,4-b]pyridin-3-yl]-3-methyl-1H-pyrazolo[3,4-d]pyrimidine-4-amine] the value was 0.1 µM; for `CCN(CC)c1n[nH]c2nc(-c3nn(CCC(F)(F)C(F)(F)F)c4ncc(F)cc34)nc(N)c12` [Example 9], 0.03 µM. As for `COc1n[nH]c2nc(-c3nn(Cc4ncccc4F)c4ncc(F)cc34)nc(N)c12` [Example 4, 6-{5-Fluoro-1-[(3-fluoropyridin-2-yl)methyl]-1H-pyrazolo[3,4-b]pyridin-3-yl}-3-methoxy-1H-pyrazolo[3,4-d]pyrimidine-4-amine], the figure is 0.3 µM; as for `Nc1nc(-c2nn(Cc3ncccc3F)c3ncc(F)cc23)nc2ncccc12` [Example 3, 2-{5-Fluoro-1-[(3-fluoropyridin-2-yl)methyl]-1H-pyrazolo[3,4-b]pyridin-3-yl}pyrido[2,3-d]pyrimidine-4-amine], 10 µM. In the case of `O=c1[nH]c2nc(-c3nn(Cc4ccccc4F)c4ncc(F)cc34)nc(NCC3CC3)c2n1CC(F)(F)F` [Example 5, 6-[(Cyclopropylmethyl)amino]-2-[5-fluoro-1-(2-fluorobenzyl)-1H-pyrazolo[3,4-b]pyridin-3-yl]-7-(2,2,2-trifluoroethyl)-7,9-dihydro-8H-purin-8-one], the minimal effective concentration came to 0.3 µM. For `CCN(CC)c1n[nH]c2nc(-c3nn(Cc4ncccc4F)c4ncc(F)cc34)nc(N)c12` [Example 2, N^3,N^3-Diethyl-6-{5-fluoro-1-[(3-fluoropyridin-2-yl)methyl]-1H-pyrazolo[3,4-b]pyridin-3-yl}-1H-pyrazolo[3,4-d]pyrimidine-3,4-diamine] the value was 0.1 µM.

The values are drawn from patent US9498480B2 (Bayer Intellectual Property GmbH, priority 2012, dated 2016).
